Assay results as given in patent US20150105252A1, “SUBSTITUTED PYRAZOLES AS HERBICIDES” (E I DU PONT DE NEMOURS AND COMPANY, priority 2013, published 2015).

Legend:
chickweed = test: Test C postemergence; assay type: in vivo, Stellaria media
Outline: (§1)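 Herbicidal effect is expressed as percent visual control (0–100) judged against untreated plants 13 to 15 days after treatment in the greenhouse. Preemergence pots contained seeds in a soil–sand blend; postemergence plants, 2–18 cm tall, grew in peat-based planting medium.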

pigweed = test: Test C postemergence; assay type: in vivo, Amaranthus retroflexus
Outline: as §1

foxtail, giant = test: Test C postemergence; assay type: in vivo, Setaria faberii
Outline: as §1

ryegrass, Italian = test: Test C postemergence; assay type: in vivo, Lolium multiflorum
Outline: as §1

corn = test: Test C postemergence; assay type: in vivo, Zea mays
Outline: as §1

morningglory = test: Test C postemergence; assay type: in vivo, Ipomoea coccinea
Outline: as §1

lambsquarters [1] = test: Test C postemergence; assay type: in vivo, Chenopodium album
Outline: as §1

blackgrass = test: Test C postemergence; assay type: in vivo, Alopecurus myosuroides
Outline: as §1

galium = test: Test C postemergence; assay type: in vivo, Galium aparine
Outline: as §1

soybean = test: Test C postemergence; assay type: in vivo, Glycine max
Outline: as §1

nutsedge, yellow = test: Test C postemergence; assay type: in vivo, Cyperus esculentus
Outline: as §1

wheat = test: Test C postemergence; assay type: in vivo, Triticum aestivum
Outline: as §1

johnsongrass = test: Test C postemergence; assay type: in vivo, Sorghum halepense
Outline: as §1

kochia = test: Test C postemergence; assay type: in vivo, Kochia scoparia
Outline: as §1

lambsquarters [2] = test: Test C preemergence; assay type: in vivo, Chenopodium album; conditions: for Lambsquarters plant response rating: scale 0 to 100 (0 no effect, 100 complete control)
Outline: as §1

velvetleaf = test: Test C postemergence; assay type: in vivo, Abutilon theophrasti
Outline: as §1

oilseed rape = test: Test C postemergence; assay type: in vivo, Brassica napus
Outline: as §1

waterhemp = test: Test C postemergence; assay type: in vivo, Amaranthus rudis
Outline: as §1

[3] = Postemergence, 31 g ai/ha, visually evaluated after 13 to 15 days
[4] = postemergence, 62 g ai/ha, scale 0 to 100
[5] = postemergence, 250 g ai/ha, scale 0 to 100 (0 no effect, 100 complete control)
[6] = postemergence, 125 g ai/ha, scale 0 to 100, 0 no effect, 100 complete control

CCCNC(=O)c1cc(CC)n(Cc2ccnc(OC(F)F)c2)n1 [Compound 132]
Plant response rating (scale of 0 to 100 where 0 is no effect and 100 is complete control), Chickweed (chickweed; [3]): 75 | Chickweed plant response rating (chickweed; [4]): 70 | Plant response rating, Chickweed (chickweed; [5]): 85 | Plant response rating, Chickweed (chickweed; [6]): 75 | Plant response rating (scale of 0 to 100 where 0 is no effect and 100 is complete control), Pigweed (pigweed; [3]): 10 | Pigweed plant response rating (pigweed; [4]): 30 | Plant response rating, Pigweed (pigweed; [5]): 60 | Plant response rating, Pigweed (pigweed; [6]): 35 | Plant response rating (scale of 0 to 100 where 0 is no effect and 100 is complete control), Foxtail, Giant (foxtail, giant; [3]): 5 | Foxtail, Giant plant response rating (foxtail, giant; [4]): 10 | Plant response rating, Foxtail, Giant (foxtail, giant; [5]): 55 | Plant response rating, Foxtail, Giant (foxtail, giant; [6]): 35 | Plant response rating (scale of 0 to 100 where 0 is no effect and 100 is complete control), Ryegrass, Italian (ryegrass, Italian; [3]): 10 | Ryegrass, Italian plant response rating (ryegrass, Italian; [4]): 10 | Plant response rating, Ryegrass, Italian (ryegrass, Italian; [5]): 10 | Plant response rating, Ryegrass, Italian (ryegrass, Italian; [6]): 10 | Plant response rating (scale of 0 to 100 where 0 is no effect and 100 is complete control), Corn (corn; [3]): 5 | Corn plant response rating (corn; [4]): 5 | Plant response rating, Corn (corn; [5]): 20 | Plant response rating, Corn (corn; [6]): 75 | Plant response rating (scale of 0 to 100 where 0 is no effect and 100 is complete control), Morningglory (morningglory; [3]): 30 | Morningglory plant response rating (morningglory; [4]): 75 | Plant response rating, Morningglory (morningglory; [5]): 98 | Plant response rating, Morningglory (morningglory; [6]): 80 | Plant response rating (scale of 0 to 100 where 0 is no effect and 100 is complete control), Lambsquarters (lambsquarters [1]; [3]): 25 | Lambsquarters plant response rating (lambsquarters [1]; [4]): 55 | Plant response rating, Lambsquarters (lambsquarters [1]; [5]): 85 | Plant response rating, Lambsquarters (lambsquarters [1]; [6]): 75 | Plant response rating (scale of 0 to 100 where 0 is no effect and 100 is complete control), Blackgrass (blackgrass; [3]): 5 | Blackgrass plant response rating (blackgrass; [4]): 5 | Plant response rating, Blackgrass (blackgrass; [5]): 25 | Plant response rating, Blackgrass (blackgrass; [6]): 10 | Plant response rating (scale of 0 to 100 where 0 is no effect and 100 is complete control), Galium (galium; [3]): 55 | Galium plant response rating (galium; [4]): 60 | Plant response rating, Galium (galium; [5]): 75 | Plant response rating, Galium (galium; [6]): 60 | Plant response rating (scale of 0 to 100 where 0 is no effect and 100 is complete control), Soybean (soybean; [3]): 65 | Soybean plant response rating (soybean; [4]): 45 | Plant response rating, Soybean (soybean; [5]): 98 | Plant response rating, Soybean (soybean; [6]): 95 | Plant response rating (scale of 0 to 100 where 0 is no effect and 100 is complete control), Nutsedge, Yellow (nutsedge, yellow; [3]): 5 | Nutsedge, Yellow plant response rating (nutsedge, yellow; [4]): 10 | Plant response rating, Nutsedge, Yellow (nutsedge, yellow; [5]): 10 | Plant response rating, Nutsedge, Yellow (nutsedge, yellow; [6]): 20 | Plant response rating (scale of 0 to 100 where 0 is no effect and 100 is complete control), Wheat (wheat; [3]): 5 | Wheat plant response rating (wheat; [4]): 10 | Plant response rating, Wheat (wheat; [5]): 15 | Plant response rating, Wheat (wheat; [6]): 10 | Plant response rating (scale of 0 to 100 where 0 is no effect and 100 is complete control), Johnsongrass (johnsongrass; [3]): 5 | Johnsongrass plant response rating (johnsongrass; [4]): 5 | Plant response rating, Johnsongrass (johnsongrass; [5]): 75 | Plant response rating, Johnsongrass (johnsongrass; [6]): 25 | Plant response rating (scale of 0 to 100 where 0 is no effect and 100 is complete control), Kochia (kochia; [3]): 70 | Kochia plant response rating (kochia; [4]): 80 | Plant response rating, Kochia (kochia; [5]): 90 | Plant response rating, Kochia (kochia; [6]): 80 | Plant response rating (scale of 0 to 100), Lambsquarters (lambsquarters [2]; Preemergence, 250 g ai/ha): 100 | Lambsquarters plant response rating (lambsquarters [2]; preemergence, 31 g ai/ha, visual rating, 13 to 15 days): 100 | Lambsquarters plant response rating (lambsquarters [2]; preemergence, 62 g ai/ha, 13 to 15 days): 100 | Plant response rating, Lambsquarters (lambsquarters [2]; preemergence, 125 g ai/ha, 13 to 15 days, scale 0 to 100, 0 = no effect, 100 = complete control): 100 | Plant response rating (scale of 0 to 100 where 0 is no effect and 100 is complete control), Velvetleaf (velvetleaf; [3]): 5 | Velvetleaf plant response rating (velvetleaf; [4]): 15 | Plant response rating, Velvetleaf (velvetleaf; [5]): 50 | Plant response rating, Velvetleaf (velvetleaf; [6]): 35 | Plant response rating (scale of 0 to 100 where 0 is no effect and 100 is complete control), Oilseed Rape (oilseed rape; [3]): 25 | Oilseed Rape plant response rating (oilseed rape; [4]): 55 | Plant response rating, Oilseed Rape (oilseed rape; [5]): 65 | Plant response rating, Oilseed Rape (oilseed rape; [6]): 65 | Plant response rating (scale of 0 to 100 where 0 is no effect and 100 is complete control), Waterhemp (waterhemp; [3]): 35 | Waterhemp plant response rating (waterhemp; [4]): 55 | Plant response rating, Waterhemp (waterhemp; [5]): 80 | Plant response rating, Waterhemp (waterhemp; [6]): 65
